From US6623933B1 (priority 1999, dated 2003)
“And” between values parts separate entries of the source, which are not always exact repeats. Equal values may be shown once. Where a name gives a salt, the structure may show the parent alone. Read-outs that look alike come from different tables or passages of the source.

What was measured:
[1] = target: T1, GluR3 AMPA receptor (Rattus norvegicus, UniProt P19492); assay: Kainate-induced currents, Xenopus oocytes injected with GluR3 cRNA; type: cell-based
T1 construct: expressed in transfected cells; host or cells: Xenopus oocytes injected with GluR3 cRNA
From the text: (§1) Plasmids were obtained from the following individuals: Dr. Suzanne Zukin (Albert Einstein College of Medicine, Bronx, N.Y.), NR1100; Dr. Shigetada Nakanishi (Kyoto University Faculty of Medicine, Kyoto, Japan), NR2A; Dr. Stephen Heinemann (Salk Institute, San Diego, Calif.), GluR1 (flop), GluR3 (flop), and GluR6. Plasmids were linearized with BamH1 (NR1100), XhoI (NR2A, GluR1, GluR3) or XbaI (GluR6) prior to in vitro transcription with T3 (GluR1, GluR3, GluR6) or T7 (NR1100, NR2A) RNA polymerase using the Message Machine kit (Ambion, Austin, Tex.). […] RNA solutions (50-70 nl) were injected into oocytes for delivery of NR1100 (5 ng), NR1100:NR2A (1:10 ng), GluR1 (5 ng). GluR3 (5 ng), or GluR6 (20 ng). Oocytes were incubated in ND96 at 18-20° C. for 3-7 days prior to electrophysiological recording.
(§2) Steroid solutions were prepared as 70-100 mM frozen stocks in dimethyl sulfoxide (DMSO). The final DMSO concentration of all recording solutions was between 0.1% to 0.5% and was constant within an experiment.
(§3) Perfusion control and data acquisition were carried out using an automated oocyte electrophysiology workstation that was developed for the rapid collection of concentration-response data and real-time waveform analysis (Yaghoubi et al., Soc. Neurosci. Abstr. 20: 1109 (1995)). This system is implemented on a Macintosh IIci computer (Apple Computer, Cupertino, Calif.) equipped with MacA-DIOS II data acquisition and control hardware (GW Instruments, Somerville, Mass.). Drug application is controlled by the computer through a series of valves, using custom-written software based on the SuperScope II development environment, improving the efficiency and reproducibility of data collection. Experiments were carried out using an Axoclamp-2A voltage clamp amplifier (Axon Instruments, Foster City, Calif.) in two-electrode voltage clamp mode. Intracellular microelectrodes (1-3 MΩ) were filled with 3 M KCl. […] Membrane potential was clamped at −60 to −70 mV and stepped to −100 mV at the start of data acquisition unless otherwise stated. […] Current and voltage recordings were digitized at 100 Hz for analysis. GluR6 injected oocytes were treated for 10 min with 10 μg/ml concanavalin A to prevent fast desensitization.
(§4) Results are expressed as mean±S.E.M. Statistical comparisons were made using Student's t-test.

[2] = target: T2, NR1100 NMDA receptor (Rattus norvegicus, UniProt P35439); assay: NMDA-induced currents, Xenopus oocytes injected with NR1100 cRNA only, Example 1; type: cell-based
T2 construct: expressed in transfected cells; host or cells: Xenopus oocytes injected with NR1100 cRNA only
From the text: as §1, §2, §3, §4

[3] = target: NR1001/NR2A (Rattus norvegicus, UniProt P35439+Q00959); set-up: agonist Emax: dose or concentration left out as unconfirmed
[4] = target: NR1100/NR2A (Rattus norvegicus, UniProt P35439+Q00959); set-up: agonist nHill / agonist Emax: dose or concentration left out as unconfirmed
[5] = target: NR1000/NR2A (Rattus norvegicus, UniProt P35439+Q00959); set-up: agonist Emax: dose or concentration left out as unconfirmed
[6] = target: NR1/NR2D (NR1100) (Rattus norvegicus, UniProt P35439+Q62645)
From the text: Plasmids containing the NR1100 (NR1G) and NR2A cDNA inserts were kindly provided by Dr. Nakanishi (Kyoto University Faculty of Medicine, Kyoto, Japan). Plasmids containing the NR2B, NR2C and NR2D cDNA inserts were kindly provided by Dr. P. Seeburg (Heidelberg University, Heidelberg, Germany). Plasmids were linearized with appropriate restriction enzyme prior to in vitro transcription using the Message Machine kit (Ambion, Inc., Austin, Tex.).
Female, oocyte-positive Xenopus laevis frogs were purchased from Xenopus I (Dexter, Mich.). […] Oocytes were injected with 50 nL of RNA solutions using an electronic microinjector (Drummond Inc., Broomall, Pa.). […] The injected oocytes were used for experiments following 1-5 days of incubation in Barth's solution at 18-20° C.
The microelectrodes were fabricated from borosilicate glass capillaries with a programmed puller (Sutter Instrument Co., Calif.). Microelectrode resistance was 1-3 MΩ_when filled with 3 M KCl.
Except where otherwise stated, oocytes were clamped at a holding potential of −70 mV during data acquisition. The membrane current was filtered at 500 Hz and sampled at 100 Hz. Drugs were applied using a gravity-driven external perfusion system. The working volume of the recording chamber was 30 μl and the rate of the perfusion was 50 μl/sec. The drug application lasted 10 sec and was followed by 60 s wash. Data acquisition and external perfusion were controlled using custom-written software implemented in the SuperScope II development environment (GW Instruments, Mass.). All experiments were performed at room temperature of 22-24° C. Peak or steady-state current measurements were normalized and expressed as a fraction of the peak or steady-state control current measurements, which were performed before and after application of every single concentration of agonists or steroids.
Concentration-response data were analyzed by nonlinear regress ion using the logistic equation Response=Emax/(1+(EC50/c)^nH), where c is concentration, Emaxis the maximum response, nHis the Hill coefficient. The data are presented as mean±SEM. EC50values are averaged as logarithms (De Lean et al., Am. J. Physiol. 235: E97-E102 (1978))±the SEM of the log EC50. […] The pooled data were simultaneously fitted to the logistic equation, either with Emax and EC50 constrained to be identical in the presence and absence of PS, or allowing one or both to vary independently. […] This was regarded as indicating a significant treatment effect of PS, but the change in EC50and Emaxwas not considered significant. […] No attempt was made to test the generally small changes in nHfor statistical significance.

[7] = target: Penta-Mutant/NR2A (Rattus norvegicus, UniProt P35439+Q00959, K193A/K202A/R187A/R233A/R252A); assay: NMDA-induced currents, Xenopus oocytes, Example 5
Protocol: Plasmids were linearized with appropriate restriction enzyme prior to in vitro transcription using the Message Machine kit (Ambion, Inc., Austin, Tex.).
Female, oocyte positive Xenopus laevis frogs were purchased from Xenopus I (Dexter, Mich). […] Oocytes were injected with 50 nL of RNA solutions using an electronic microinjector (Drummond Inc., Broomall, Pa.). […] The injected oocytes were used for experiments following 1-5 days of incubation in Barth's solution at 18-20° C.
The microelectrodes were fabricated with a programmed puller (Sutter Instrument Co., Calif.) from borosilicate glass capillaries and were filled with 3 M KCl solution. The resistance of filled microelectrodes was in the range of 1-3 MΩ. […] If not mentioned otherwise, during data acquisition oocytes were clamped at a holding potential of −70 mV. The membrane current was filtered at 500 Hz and sampled at 100 Hz. Drugs were applied using a gravity driven external perfusion system. The working ,volume of the recording chamber was 30 μl and the rate of the perfusion was 50 μl/sec. The drug application lasted 10 sec and was followed by a 60 sec wash. The data acquisition and external perfusion control were done using the SuperScopeII software package (GW Instruments, Mass.). All experiments were performed at room temperature (22-24° C.). Peak or steady-state current measurements were normalized and expressed as a fraction of the peak or steady-state control current measurements, which were performed before and after application of every single consentration of agonist or steroid. […] The data are presented as mean±S.E.M. with number of experiments in parentheses.

[8] = target: NR1111/NR2A (Rattus norvegicus, UniProt P35439+Q00959); assay: NMDA-induced currents of NR1 splice variants, Xenopus oocytes, Example 4; type: cell-based; set-up: expressed in transfected cells; host or cells: Xenopus oocytes injected with NR1111 and NR2A mRNA; conditions: for maximum relative current (MRC) / percentage potentiation of the maximum NMDA response / NMDA nH / EC50: NR1111/2A; for EC50: read-out: NMDA EC50
Protocol: Overnight cultures (500 ml) of transformed bacterial cells were prepared in order to grow sufficient quantities for maxiprep isolation of the plasmid CDNA. Maxipreps were done using a Sorvall RC-5B ultracentrifuge, Qiagen columns and cDNA was quantitated with spectrophotometry (OD260 and OD260/ OD280 ratio). The resulting plasmid cDNA was linearized by digestion with an appropriate restriction enzyme that cleaves distal to the cDNA insert (XhoI for NR2A or NotI for NR1100, NR1000, NR1111, NR1011, NR1101, NR1001). […] The samples were stored at −20° C. until use.
In vitro transcription was performed using the Ambion mMessage mMachine kit with T7 (NR1100, NR1000, NR1111, NR1011, NR1101, NR1001) RNA polymerase. The reaction was assembled on ice and allowed to incubate at 37° C. for 1-2 hr. The resulting mRNA was precipitated (reaction termination) using lithium chloride/5 mM EDTA solution and dissolved in RNase-free H2O. The concentration (OD260) and OD260/OD280 ratio (should be more than 1.5) was determined by spectrophotometer. The yield of mRNA was generally 15-30 μg. mRNA was stored at −80° C. until use.
Intracellular recording microelectrodes were fabricated from 100 μl borosilicate glass disposable micropipettes using a 2-step protocol on a standard horizontal Flaming-Brown micropipette puller.

NR1/NR2D (NR1100), sequence (Q62645 28-1323, other chains not shown): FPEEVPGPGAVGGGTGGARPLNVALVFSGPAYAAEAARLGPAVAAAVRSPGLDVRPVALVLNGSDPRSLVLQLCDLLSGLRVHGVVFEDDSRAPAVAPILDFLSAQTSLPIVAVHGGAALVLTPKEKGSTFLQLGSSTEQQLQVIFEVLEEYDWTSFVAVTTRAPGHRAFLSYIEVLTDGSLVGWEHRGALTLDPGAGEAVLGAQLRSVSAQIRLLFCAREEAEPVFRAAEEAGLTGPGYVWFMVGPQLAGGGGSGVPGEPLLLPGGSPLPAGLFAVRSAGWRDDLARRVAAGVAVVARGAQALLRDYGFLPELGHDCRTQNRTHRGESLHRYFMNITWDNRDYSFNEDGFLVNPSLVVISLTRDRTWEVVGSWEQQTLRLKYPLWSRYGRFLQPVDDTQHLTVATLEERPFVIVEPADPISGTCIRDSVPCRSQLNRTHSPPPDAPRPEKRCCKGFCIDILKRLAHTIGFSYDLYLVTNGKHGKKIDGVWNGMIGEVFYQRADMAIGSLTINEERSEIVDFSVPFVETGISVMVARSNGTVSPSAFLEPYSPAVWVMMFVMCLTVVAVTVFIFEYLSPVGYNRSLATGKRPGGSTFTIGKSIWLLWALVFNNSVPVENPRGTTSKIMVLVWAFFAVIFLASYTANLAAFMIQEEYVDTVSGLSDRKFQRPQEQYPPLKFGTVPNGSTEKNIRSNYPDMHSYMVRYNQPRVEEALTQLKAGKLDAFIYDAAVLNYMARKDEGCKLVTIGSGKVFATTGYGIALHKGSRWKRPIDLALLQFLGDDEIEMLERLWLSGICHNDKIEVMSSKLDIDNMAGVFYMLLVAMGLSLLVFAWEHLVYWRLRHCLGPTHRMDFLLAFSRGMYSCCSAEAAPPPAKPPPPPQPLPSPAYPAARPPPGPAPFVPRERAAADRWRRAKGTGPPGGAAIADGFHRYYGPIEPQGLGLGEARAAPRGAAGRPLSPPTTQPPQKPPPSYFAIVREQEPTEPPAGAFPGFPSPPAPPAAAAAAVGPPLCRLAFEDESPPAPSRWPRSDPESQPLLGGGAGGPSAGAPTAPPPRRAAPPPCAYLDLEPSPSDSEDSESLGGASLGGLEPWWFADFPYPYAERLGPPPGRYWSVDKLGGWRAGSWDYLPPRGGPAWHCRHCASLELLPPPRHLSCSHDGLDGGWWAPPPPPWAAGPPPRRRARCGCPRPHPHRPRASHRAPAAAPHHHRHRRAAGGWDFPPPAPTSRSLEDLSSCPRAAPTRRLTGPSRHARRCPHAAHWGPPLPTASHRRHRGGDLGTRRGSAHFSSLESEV
T1 sequence (P19492 23-888): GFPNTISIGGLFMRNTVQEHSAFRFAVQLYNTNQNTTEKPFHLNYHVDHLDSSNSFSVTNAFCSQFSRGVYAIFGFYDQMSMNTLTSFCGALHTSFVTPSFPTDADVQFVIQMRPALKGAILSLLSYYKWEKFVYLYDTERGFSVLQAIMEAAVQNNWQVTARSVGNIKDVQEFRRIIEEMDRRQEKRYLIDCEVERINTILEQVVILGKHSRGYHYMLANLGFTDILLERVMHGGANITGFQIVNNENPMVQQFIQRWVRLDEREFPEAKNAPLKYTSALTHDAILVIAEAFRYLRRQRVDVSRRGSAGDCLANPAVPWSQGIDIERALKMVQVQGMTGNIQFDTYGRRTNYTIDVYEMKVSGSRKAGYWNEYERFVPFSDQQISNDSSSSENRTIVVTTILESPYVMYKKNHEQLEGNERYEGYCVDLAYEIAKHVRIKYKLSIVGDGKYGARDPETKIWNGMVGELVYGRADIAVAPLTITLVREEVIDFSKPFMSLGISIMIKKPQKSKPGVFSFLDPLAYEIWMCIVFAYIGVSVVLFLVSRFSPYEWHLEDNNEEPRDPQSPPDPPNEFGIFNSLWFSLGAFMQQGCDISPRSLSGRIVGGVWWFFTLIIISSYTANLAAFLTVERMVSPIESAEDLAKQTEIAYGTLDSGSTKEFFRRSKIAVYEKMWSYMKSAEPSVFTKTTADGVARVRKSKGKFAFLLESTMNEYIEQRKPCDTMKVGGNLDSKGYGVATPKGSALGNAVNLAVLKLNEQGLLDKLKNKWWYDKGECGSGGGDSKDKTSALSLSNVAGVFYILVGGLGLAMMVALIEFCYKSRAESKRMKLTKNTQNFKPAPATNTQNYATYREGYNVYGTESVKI
Penta-Mutant/NR2A, sequence (Q00959 23-1464, other chains not shown): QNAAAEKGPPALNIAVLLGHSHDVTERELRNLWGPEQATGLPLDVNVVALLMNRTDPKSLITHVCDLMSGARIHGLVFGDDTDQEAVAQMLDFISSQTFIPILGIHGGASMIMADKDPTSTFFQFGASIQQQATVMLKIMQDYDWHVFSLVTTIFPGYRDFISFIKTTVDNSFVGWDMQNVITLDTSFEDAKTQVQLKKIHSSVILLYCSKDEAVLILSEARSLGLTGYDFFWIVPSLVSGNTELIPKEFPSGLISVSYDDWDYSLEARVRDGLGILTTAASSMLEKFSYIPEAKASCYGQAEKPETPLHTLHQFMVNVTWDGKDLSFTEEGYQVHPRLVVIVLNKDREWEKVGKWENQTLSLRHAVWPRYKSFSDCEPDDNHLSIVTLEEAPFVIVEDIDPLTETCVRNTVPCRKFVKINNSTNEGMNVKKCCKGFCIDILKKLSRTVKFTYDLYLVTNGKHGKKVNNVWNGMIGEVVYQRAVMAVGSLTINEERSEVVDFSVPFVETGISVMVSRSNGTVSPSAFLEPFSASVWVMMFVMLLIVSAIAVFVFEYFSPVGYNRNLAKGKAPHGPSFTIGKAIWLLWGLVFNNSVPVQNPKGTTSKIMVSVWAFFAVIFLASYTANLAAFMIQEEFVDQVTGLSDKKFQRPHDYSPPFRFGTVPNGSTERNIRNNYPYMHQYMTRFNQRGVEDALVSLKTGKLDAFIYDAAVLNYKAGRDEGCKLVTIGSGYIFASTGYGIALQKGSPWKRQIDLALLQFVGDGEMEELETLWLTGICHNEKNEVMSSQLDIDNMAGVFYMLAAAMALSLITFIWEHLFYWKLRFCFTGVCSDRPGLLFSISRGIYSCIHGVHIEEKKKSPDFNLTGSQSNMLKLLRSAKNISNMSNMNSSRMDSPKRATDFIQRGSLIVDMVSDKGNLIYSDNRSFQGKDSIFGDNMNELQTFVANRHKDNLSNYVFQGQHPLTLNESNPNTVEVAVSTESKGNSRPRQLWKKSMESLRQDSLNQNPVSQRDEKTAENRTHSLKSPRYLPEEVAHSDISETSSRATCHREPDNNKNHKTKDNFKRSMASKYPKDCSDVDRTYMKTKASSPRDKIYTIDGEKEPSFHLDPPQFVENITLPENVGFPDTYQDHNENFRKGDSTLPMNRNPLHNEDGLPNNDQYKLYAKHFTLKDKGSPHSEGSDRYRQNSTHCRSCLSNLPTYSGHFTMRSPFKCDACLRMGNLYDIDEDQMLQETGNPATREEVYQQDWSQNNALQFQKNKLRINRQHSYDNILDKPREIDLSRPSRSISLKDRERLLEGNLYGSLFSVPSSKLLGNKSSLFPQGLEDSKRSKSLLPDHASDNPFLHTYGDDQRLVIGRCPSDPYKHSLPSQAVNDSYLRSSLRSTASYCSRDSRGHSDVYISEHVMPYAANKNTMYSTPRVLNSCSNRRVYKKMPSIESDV
NR1000/NR2A, sequence (Q00959 23-1464, other chains not shown): as above

pregnenolone sulfate [PS]
PS Emax, percentage change in kainate-induced current ([1]; GluR3, 100 μM kainate): −90%
inhibition of kainate response ([1]; GluR3, 200 μM PS): 81±3%
reduction of kainate Imax ([1]; GluR3, PS 100 μM): 71%
inhibition of the response to kainate ([1]; GluR3, steroid 100 μM): over 70%
Percentage change in kainate response ([1]; GluR3, steroid 100 μM, 100 μM kainate, −100 mV): −73 ± 3(8) %
maximum potentiation of NMDA induced current ([2]; NR1100 cRNA only): 114%
steroid Emax (NMDA-induced current relative to control) ([2]; NR1100 cRNA only, 300 μM NMDA): 2.14
Maximum potentiation of NMDA-induced current by PS ([3]; NR1001/NR2A): 2.19±0.09 fold
PS Emax ([3]; NR1001/NR2A): 1.19 ± 0.09
PS nHill ([3]; NR1001/NR2A): 1.14 ± 0.10
Maximum potentiation of NMDA-induced current by PS ([4]; NR1100/NR2A): 1.67±0.07 fold
PS Emax ([4]; NR1100/NR2A): 0.67 ± 0.07
PS nHill ([4]; NR1100/NR2A): 1.33 ± 0.08
Maximum potentiation of NMDA-induced current by PS ([5]; NR1000/NR2A): 2.14±0.08 fold
PS Emax ([5]; NR1000/NR2A): 1.14 ± 0.08
PS nHill ([5]; NR1000/NR2A): 1.31 ± 0.06
PS nH [6]: 1.16 ± 0.08
PS Emax (% Change) ([6]; 10 μM NMDA, 10 μM glycine): −70 ± 6%
inhibition of NMDA response ([6]; 100 μM PS, 10 μM NMDA): 26±1%
reduction in PS potentiation of the NMDA response vs wild type ([7]; 100 uM PS, 300 uM NMDA, 50 uM Glycine): 40% and 47.5±8.80%
maximum relative current (MRC) ([8]; 100 μM PS, 200 μM NMDA+10 μM glycine, pH 7.5): 2.28
maximum relative current (MRC) ([8]; 100 μM PS, pH 6.5): 4.06
percentage potentiation of the maximum NMDA response ([8]; 100 μM PS, pH 7.5): 103%
maximum relative current (MRC) ([8]; 100 μM PS, pH 8.5): 1.59 and 1.58
percentage potentiation of the maximum NMDA response ([8]; 100 μM PS, pH 8.5): 47%
difference in mrc between pH=6.5 and pH=7.5 ([8]; NR1111/NR2A, 100 μM PS): 1.8 fold
difference in mrc between pH=7.5 and pH=8.5 ([8]; NR1111/NR2A, 100 μM PS): 1.4 fold

CC(=O)[C@H]1CC[C@H]2[C@@H]3CC[C@@H]4C[C@H](OS(=O)(=O)O)CC[C@]4(C)[C@H]3CC[C@]12C [3α5βS, 3α5β-pregnanolone sulfate]
Percentage change in kainate response [1]: −63 ± 8(4) %
EC50 [2]: 57 µM
3α5βS Emax ([3]; splice variant 001 /NR2A): −0.89 ± 0.05
3α5βS nHill ([3]; splice variant 001 /NR2A): 0.95 ± 0.11
maximum extent of inhibition by 3α5βS ([4]; NR1100/NR2A): 99±3%
3α5βS Emax ([4]; splice variant 100 /NR2A): −0.99 ± 0.03
3α5βS nHill ([4]; splice variant 100 /NR2A): 0.83 ± 0.02
3α5βS Emax ([5]; splice variant 000 /NR2A): −0.89 ± 0.01
3α5βS nHill ([5]; splice variant 000 /NR2A): 0.98 ± .03
3α5βS nH [6]: 1.14 ± 0.16
percent decrease in maximum inward current ([7]; Penta-Mutant/NR2A, 100 uM steroid, 300 uM NMDA, 50 uM Glycine): 42.79±2.29%
inhibition at 100 µM ([8]; pH 7.5, read-out: percentage inhibition of the maximum NMDA response): 59%

CN[C@H](CC(=O)O)C(=O)O [NMDA, N-methyl-D-aspartate]
agonist Emax ([3]; NR1001/NR2A, absence of PS): 1.27 ± 0.04
agonist nHill ([3]; NR1001/NR2A, absence of PS): 1.46 ± 0.07
agonist nHill ([3]; NR1001/NR2A, presence of 100 mM PS): 1.21 ± 0.15
agonist Emax ([3]; NR1001/NR2A, presence of PS): (2.15 ± 0.17)
agonist Emax ([4]; NR1100/NR2A, absence of PS): 1.36 ± 0.04
agonist nHill ([4]; NR1100/NR2A, absence of PS): 1.13 ± 0.04
agonist Emax ([4]; NR1100/NR2A, presence): (1.60 ± 0.07
agonist nHill ([4]; NR1100/NR2A, presence): 1.20 ± 0.06
agonist Emax ([5]; NR1000/NR2A, absence of PS): 1.20 ± 0.05
agonist nHill ([5]; NR1000/NR2A, absence of PS): 1.31 ± 0.08
agonist nHill ([5]; NR1000/NR2A, presence of 100 mM PS): 1.18 ± 0.05
agonist Emax ([5]; NR1000/NR2A, presence of PS): (1.55 ± 0.04)
agonist Emax ([6]; +100 μM PS): 0.71
agonist nH ([6]; +100 μM PS): 1.17 ± 0.01
agonist Emax ([6]; no PS): 1.02 ± 0.01
agonist nH ([6]; no PS): 1.26 ± 0.09
EC50 ([6]; read-out: agonist EC50, +100 μM PS, unit cell empty): 6.2 µM
EC50 ([6]; read-out: agonist EC50, no PS): 8 µM
EC50 ([7]; read-out: NMDA EC50, Penta-mutant/NR2A): 55 ± 3.4 µM
NMDA nH ([8]; pH 7.5, +100 μM 3α5βS): 1.50
NMDA nH ([8]; pH 7.5, +100 μM PS): 2.02
NMDA nH ([8]; pH 7.5, control): 1.67
NMDA nH ([8]; pH 8.5, +100 μM PS): 1.82
NMDA nH ([8]; pH 8.5, control): 1.93
EC50 ([8]; pH 7.5, +100 μM 3α5βS): 158 µM
EC50 ([8]; pH 7.5, +100 μM PS): 89 µM
EC50 ([8]; pH 7.5, control, 10 μM glycine): 103 µM
EC50 ([8]; pH 8.5, +100 μM PS): 94 µM
EC50 ([8]; pH 8.5, control): 110 µM
